Measurements from ChEMBL document CHEMBL1145726, “Structure-based design of agents targeting the bacterial ribosome” (Bioorg Med Chem Lett, 2003).
Values after ≈ are worked out from the molar mass of the structure shown.

Assays:
Type in all cases: functional
[1] = system: Escherichia coli; assay: In vitro antibacterial activity was determined
[2] = system: Escherichia coli; assay: In vitro inhibition of protein translation in Escherichia coli
[3] = system: Nucleic Acid; assay: % Inhibition of rRNA methylation at 50 uM
[4] = Inhibition of L11BD (L11 binding domain) 58-mer methylation of A1067 at 50 uM
[5] = system: Escherichia coli; assay: Inhibitory concentration of compound against Escherichia coli in vitro protein translation

Row | MIC95 [1] | inhibition [4] | Structure (SMILES) | Inhibition [2] | inhibition [3] | IC50 [5]
1 | > 200 µg/mL | 24% | CC(C)[C@@H](NC(=O)[C@@H](NC(=O)c1csc(-c2ccccc2)n1)[C@@H](C)O)c1nc(C(=O)NCc2ccc3c(c2)OCO3)cs1 | 16% | 20% | –
2 | > 200 µg/mL | 37% | CC(C)[C@@H](NC(=O)[C@@H](NC(=O)c1csc(-c2ccccc2)n1)[C@@H](C)O)c1nc(C(=O)NCCCO)cs1 | 48% | 37% | –
3 | > 200 µg/mL | 35% | C[C@H](O)[C@@H](NC(=O)[C@@H](NC(=O)c1csc(-c2ccccc2)n1)[C@@H](C)O)c1nc(C(=O)O)cs1 | – | 27% | –

Continued, compound first:

Row | Structure (SMILES) | MIC95 [1] | inhibition [4] | Inhibition [2] | inhibition [3] | IC50 [5]
4 | C[C@H](O)[C@H](NC(=O)c1csc(-c2ccccc2)n1)c1nc(C(=O)N2CCN(CCOCCO)CC2)cs1 | > 200 µg/mL | 59% | – | – | –
5 | CC[C@@H](NC(=O)[C@@H](NC(=O)c1csc(-c2ccccc2)n1)[C@@H](C)O)c1nc(C(=O)NCc2ccc3c(c2)OCO3)cs1 | > 200 µg/mL | 28% | 31% | 13% | –
6 | C=C(NC(=O)C(=C)NC(=O)c1csc(C2=N[C@@H]3c4csc(n4)[C@H]4NC(=O)c5csc(n5)[C@H]([C@](C)(O)[C@@H](C)O)NC(=O)[C@H]5CSC(=N5)/C(=C/C)NC(=O)[C@H]([C@@H](C)O)NC(=O)c5csc(n5)[C@]3(CC2)NC(=O)[C@H](C)NC(=O)C(=C)NC(=O)[C@H](C)NC(=O)[C@H]([C@@H](C)CC)N[C@@H]2C=Cc3c([C@H](C)O)cc(nc3[C@H]2O)C(=O)O[C@@H]4C)n1)C(N)=O [THIOSTREPTON] | 0.015 µg/mL (≈ 0.00901 µM) | – | 98% | – | 100 nM
